{"source": "patent US6391908B1", "about": "“Oxime amide indole type sPLA2 inhibitors” (Eli Lilly and Company, priority 1998, dated 2002)", "molecular_target": "T1, recombinant human secreted phospholipase A2 (Homo sapiens, UniProt P14555)", "T1 sequence (P14555 21-144)": "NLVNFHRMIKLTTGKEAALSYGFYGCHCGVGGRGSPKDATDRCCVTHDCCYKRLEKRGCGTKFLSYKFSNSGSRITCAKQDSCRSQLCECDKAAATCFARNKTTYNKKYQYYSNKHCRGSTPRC", "experiment": "chromogenic assay for inhibitors of recombinant human secreted phospholipase A2", "format": "biochemical", "description": "The following chromogenic assay procedure was used to identify and evaluate inhibitors of recombinant human secreted phospholipase A2. The assay described herein has been adapted for high volume screening using 96 well microtiter plates. A general description of this assay method is found in the article, “Analysis of Human Synovial Fluid Phospholipase A2 on Short Chain Phosphatidylcholine-Mixed Micelles: Development of a Spectrophotometric Assay Suitable for a Microtiterplate Reader”, by Laure J. Reynolds, Lori L. Hughes, and Edward A Dennis, Analytical Biochemistry, 204, pp. 190-197, 1992 (the disclosure of which is incorporated herein by reference): […]\nA measured volume of racemic dipheptanoyl thio PC supplied in chloroform at a concentration of 100 mg/ml is taken to dryness and redissolved in 10 millimolar TRITON X-100™ nonionic detergent aqueous solution. […]\n5. Read absorbance of wells at 405 nanometers with an automatic plate reader.\nAll compounds were tested in triplicate. […] Compounds initially found to be active were reassayed to confirm their activity and, if sufficiently active, IC50 values were determined. […] In all cases, % inhibition measured at 405 nanometers generated by enzyme reactions containing inhibitors relative to the uninhibited control reactions was determined. […] IC50 were determined by plotting log concentration versus inhibition values in the range from 10-90% inhibition."}
{"compound": "CCc1c(/C(=N/O)C(N)=O)c2c(OCC(=O)O)cccc2n1Cc1ccccc1", "note": "[Example 1]", "values": [{"measurement": "activity in inhibiting sPLA2 (in words)", "result": "highly active"}, {"measurement": "IC50", "setting": "diheptanoyl thio-PC substrate, pH 7.5, 40° C. for 30 minutes, absorbance at 405 nanometers, read-out: Inhibition of human secreted PLA2 IC50 ± mean deviation (3-4 tests)", "result": 49, "unit": "nM"}]}
